Test results published in US20250223626A1, “METHODS OF DIAGNOSING IBS-D AND SELECTION OF IBS-D TREATMENT” (priority 2022, published 2025).
“Also recorded” adds a separate entry of the source.

Key:
[1] = system: Methanobrevibacter smithii; settings: rats on HFD, gavaged 10 days with 1.5 mg/ml, compared to controls (water)
Procedure: (§1) Therefore, HFD was used to assess the effects of persistent M. smithii elevation on stool consistency (stool wet weights). Sprague-Dawley rats were placed on a HFD (60% energy from fat [D12492; Research Diets, New Brunswick, NJ]) for 7 weeks. […] Stool collections were performed at baseline, after 7 weeks on HFD, and after the 10-day lovastatin/control treatments. Stool wet weights were determined. Stool and small bowel DNAs were extracted at euthanasia and the absolute abundance of M. smithii was determined by qPCR as described previously.

[2] = rats on HFD, 10 days of treatment, compared to controls on HFD (P=0.07)
Procedure: as §1

| SMILES | M. smithii absolute load in the small bowel [1] | stool consistency (stool wet weight) [2] |
| --- | --- | --- |
| CC[C@H](C)C(=O)O[C@H]1C[C@@H](C)C=C2C=C[C@H](C)[C@H](CC[C@@H]3C[C@@H](O)CC(=O)O3)[C@H]21 [lovastatin lactone] | decreased; also recorded: reduction | normalization |
| CC[C@H](C)C(=O)O[C@H]1C[C@@H](C)C=C2C=C[C@H](C)[C@H](CC[C@@H](O)C[C@@H](O)CC(=O)O)[C@H]21 [lovastatin hydroxyacid] | – | normalization |
